Test results taken from ChEMBL document CHEMBL3046132, “Design and synthesis of thienopyridines as novel templates for acetylcholinesterase inhibitors” (2013).

tested on: Rattus norvegicus; test: In vivo inhibition of AchE in Wistar albino Rattus norvegicus (rat) brain at 10 mg/kg, po after 30 min relative to untreated control; assay type: functional; settings: 0.5 h

Row | SMILES | inhibition in vivo at 10 mg/kg [%]
1 | O=C1c2ccccc2C(=O)N1CCNCCCNc1c2c(nc3sc4c(c13)CCCC4)CCCC2 | 43.9
2 | O=C1c2ccccc2C(=O)N1CCCNc1c2c(nc3sc4c(c13)CCCC4)CCCC2 | 42.7
3 | Cc1sc2nc3c(c(NCCCNc4c5c(nc6sc(C)c(C)c46)CCCC5)c2c1C)CCCC3 | 25.1
4 | Cc1sc2nc3c(c(NCCCCNc4c5c(nc6sc(C)c(C)c46)CCCC5)c2c1C)CCCC3 | 41.5
5 | Cc1sc2nc3c(c(NCCCCNC(=O)CCCCC4CCSS4)c2c1C)CCCC3 (stereo not drawn) | 42.9
6 | C(CCNc1c2c(nc3sc4c(c13)CCCC4)CCCC2)CNc1c2c(nc3sc4c(c13)CCCC4)CCCC2 | 35.7
7 | Cc1sc2nc3c(c(NCCCN4C(=O)c5ccccc5C4=O)c2c1C)CCCC3 | 46.2
8 | O=C(CCCCC1CCSS1)NCCCCNc1c2c(nc3sc4c(c13)CCCC4)CCCC2 (stereo not drawn) | 21.4
9 | Nc1c2c(nc3ccccc13)CCCC2 [TACRINE] | 54.9
10 | Cc1sc2nc3c(c(NCCCCN4C(=O)c5ccccc5C4=O)c2c1C)CCCC3 | 55.6
11 | O=C1c2ccccc2C(=O)N1CCNCCCCNc1c2c(nc3sc4c(c13)CCCC4)CCCC2 | 45
12 | O=C1c2ccccc2C(=O)N1CCCCNc1c2c(nc3sc4c(c13)CCCC4)CCCC2 | 29.8
13 | O=C(CCCCC1CCSS1)NCCCNc1c2c(nc3sc4c(c13)CCCC4)CCCC2 (stereo not drawn) | 56.7
